According to article PMC3556010, “A new strategy based on pharmacophore-based virtual screening in adenosine deaminase inhibitors detection and in-vitro study” (DARU Journal of Pharmaceutical Sciences, 2012):
pIC50, pKi: −log10 of the molar value.

Experiments:
[1] = biological target: T1, Adenosine deaminase (from bovine spleen) (Bos taurus, UniProt P56658); test: ADA enzyme inhibition by UV-vis spectrophotometry (Kaplan method, absorbance at 265 nm); assay type: biochemical; details: for pIC50: pH 7.5, 37°C, phosphate buffer; for pKi: secondary plot of apparent Km versus [I], inhibitor 0–130 μM, substrate 20–124 μM, 37°C, pH 7.5, read-out: Ki (inhibition constant)
T1 construct: Adenosine deaminase (from bovine spleen in 3.2 M ammonium sulfate) was purchased from Sigma; purchased Sigma (St. Louis, MO, USA); host or cells: bovine spleen (tissue-derived)
T1 sequence (P56658 1-363): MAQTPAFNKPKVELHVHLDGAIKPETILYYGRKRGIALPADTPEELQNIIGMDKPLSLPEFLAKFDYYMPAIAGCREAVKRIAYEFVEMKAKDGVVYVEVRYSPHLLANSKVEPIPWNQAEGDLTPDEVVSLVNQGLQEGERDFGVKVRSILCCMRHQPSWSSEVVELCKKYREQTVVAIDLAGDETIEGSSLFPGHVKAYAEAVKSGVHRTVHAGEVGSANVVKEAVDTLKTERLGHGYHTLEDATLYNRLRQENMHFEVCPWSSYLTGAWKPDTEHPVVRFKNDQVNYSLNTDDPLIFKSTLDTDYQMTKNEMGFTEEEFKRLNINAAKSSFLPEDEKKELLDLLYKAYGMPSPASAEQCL
Experimental: Adenosine deaminase (from bovine spleen in 3.2 M ammonium sulfate) was purchased from Sigma (St. Louis, MO, USA). Phosphate buffer 50 mM, pH 7.5, was used as media which is comprised NaH2PO4 and Na2HPO4 and are from Merck. In addition, other material such as solvents, were purchased from this company.
All of biological samples were prepared with double distilled water. The adenosine stock solution prepared and was used in concentration range of 0.01-0.4 mM. The concentration of enzyme in the assay mixture 50 mM sodium phosphate buffer, was 0.9 nM with a final volume of 1ml. Enzymatic activities were assayed by UV–vis spectrophotometry (Shimadzu-3100, Japan) based on Kaplan Method to follow the decrease in absorbance at 265 nm resulting from the conversion of adenosine to inosine.
For accurate determination of kinetic parameters, the IC50 values were evaluated, and then the enzyme inhibition was studied in 180 s intervals. […] In a competitive inhibition; Vmax is unaltered, whereas Km is increased. The slope of a competitive plot is equal to:
Slope=KmI/Vmax.Ki+Km/Vmax
All experiments performed in 37°C and phosphate buffer, pH=7.5.

[2] = biological target: T2, Adenosine deaminase (Bos taurus, UniProt P56658); test: Fluorescence spectroscopy of ADA 3-D structure changes; design: species or system bovine; details: excitation 290 nm, pH 7.5, 37°C; inhibitor 10 μM
T2 construct: Adenosine deaminase (from bovine spleen in 3.2 M ammonium sulfate) was purchased from Sigma; purchased Sigma (St. Louis, MO, USA); host or cells: bovine spleen (tissue-derived)
T2 sequence (P56658 1-363): T1 sequence (P56658 1-363)
Experimental: Fluorescence study has been done with fluorescent spectroscopy (Hitachi MPF-4, Japan), which its cell length is 1cm. In this method, the exciting wavelength was adjusted in 290 nm and the emission was studied in range of 300–400 nm for possible enzyme 3-D structure changes. In this experiment, different concentrations of inhibitors (5–100 μM) were investigated in the presence of ADA (0.01unit) by final volume of 400 μL with phosphate buffer.
To investigate changes in enzyme 3-D structure at different concentration of inhibitors (10–100 μM), the fluorescence experiments were done in excitation wavelength of 290 nm, which is due to tryptophan amino acids in the active site of enzyme Figure 5.
Figure 5 The fluorescence spectra of adenosine deaminase at pH=7.5 and T=37°C in the presence of different concentrations of three inhibitors: 10–100 μM.

[3] = biological target: adenosine deaminase; details: cited from earlier work

| pIC50 [1] | pKi [1] | enzyme structural changes by fluorescence intensity [2] | inhibition mechanism ([1]; kinetic studies) | Compound | pKi [3] |
| --- | --- | --- | --- | --- | --- |
| 3.99 | 4.20 |  |  | Cn1c([N+](=O)[O-])cnc1-c1nnco1 [Compound 1] |  |
| 4.39 | 4.70 | sever structural changes | competitive | Cn1c([N+](=O)[O-])cnc1C#N [Compound 2] |  |
|  |  |  |  | erythro-9-(2-hydroxy-3-nonyl) adenine [EHNA] | 7.43 |
